Test results as given in patent US7968605B2, “Methods for treating inflammatory disease by administering aldehydes and derivatives thereof” (ALFAMA—Investigação e Desenvolvimento de Produtos …, priority 2002, dated 2011).
One block for each compound: values may come before it.

Assays:
[1] = CO release from aldehyde prodrug compounds in TBHP plus rpmi solution; settings: for CO release / Rate of CO release: 1.5 ml rpmi + 0.5 ml TBHP, 37° C.
adjuvant arthritis [2] = test: Anti-arthritic activity, adjuvant arthritis in Sprague-Dawley rats; type: in vivo; settings: 100 mg/kg/day intraperitoneal for 20 days from day 10
Experimental: Adjuvant arthritis was induced in outbred Sprague-Dawley rats by intradermal injection into the subplantar area of the right hind paw of 0.1 ml of a 10 mg/ml suspension of Mycobacterium butyricum, killed and dried in Freund's incomplete adjuvant. Treatment was initiated 10 days after disease induction at the time of disease onset. Groups of 7 rats received intraperitoneal injections of compound 1 and compound 2 in 1 ml PBS, each at a dose of 100 mg/kg/day for 20 days. A control group of 7 rats received no treatment. Progression of arthritis was monitored by daily measurements of right and left paw volumes by a water displacement method using a plethysmometer, by daily measurements of the ankle circumference with a flexible strip, and by determination of the arthritic index based on levels of erythema and oedema of the entire paws and digits, number of joints involved, spondylosis, lesions on the tail, movement capacity and infections. The maximum possible score was 11.

[3] = CO release from aldehydes in different media (TBHP, H2O2, rpmi, pH 2), gas chromatograph; settings: for CO release in rpmi: RPMI media with 10% fetal calf serum; for CO release in rpmi / CO release in TBHP solution / CO release in H2O2 solution / Media in which CO release was observed: 37° C.; for CO release in TBHP solution: TBHP solution in excess, aldehyde about 0.11-0.17 M; for Effect of radical trap 2,6-di-tert-butylphenol on CO release in acidic aqueous solution: acidic aqueous solution plus radical trap; for CO release in pH 2 (acidic aqueous) solution: aqueous solution pH 2-2.5, 37° C.; for CO release in H2O2 solution: hydrogen peroxide solution, 35% in water; for Media in which CO release was observed: tested in TBHP, H2O2, rpmi and pH 2 solutions
adjuvant arthritis [4] = test: Anti-arthritic activity, adjuvant arthritis in Lewis rats; type: in vivo; settings: for Arthritic score / Increase in paw volume compared to vehicle or untreated rats: 100 and 25 mg/kg daily
[5] = 25 mg/kg daily injections for 30 days from day 10
[6] = 100 mg/kg daily injections for 30 days from day 10
[7] = listed as 4-ethyl-4-formyl-hexanenitrile

- CO release [1]: released CO
- Rate of CO release [1]: fast within the first 6 hours
- CO release after 5 hours ([1]; TBHP plus rpmi, 5 hours): 17%
- CO release after 6 hours ([1]; TBHP plus rpmi): around 16%
- CO release after 23 hours ([1]; TBHP plus rpmi, 23 hours): 21%
- CO release after one day ([1]; TBHP plus rpmi): 20%
SMILES: CC(C)(C)C1NC(C(=O)O)CS1 (racemic) [compound 9, 2-tert-butylthiazolidine-4-carboxylic acid]

- CO release [1]: released CO
- Rate of CO release [1]: very slow
- CO release after 6 hours ([1]; TBHP plus rpmi): 0.3%
- CO release after 25 hours ([1]; TBHP plus rpmi): 10.3%
- CO release after one day ([1]; TBHP plus rpmi): about 10%
SMILES: COC(=O)C1CSC(C(C)(C)C)N1 (racemic) [compound 10]

- CO release [1]: released CO
- Rate of CO release [1]: initially very slowly
- CO release after 6 hours ([1]; TBHP plus rpmi): 3%
- CO release after 24 hours ([1]; TBHP plus rpmi): 25%
- CO release after one day ([1]; TBHP plus rpmi): about 25%
SMILES: CC(C)(C)C1NCCS1 (racemic) [compound 11, 2-tert-butyl-thiazolidine]

- CO release [1]: lower than its 5-membered ring analogue
- CO release after 6 hours ([1]; TBHP plus rpmi): 7.7%
- CO release after 25 hours ([1]; TBHP plus rpmi): 15.8%
- CO release after one day ([1]; TBHP plus rpmi): about 16%
SMILES: CC(C)(C)C1NC(C(=O)O)CCS1 (racemic) [compound 12, 2-tert-butyl-[1,3]thiazinane-4-carboxylic acid]

- CO release in rpmi [3]: decarbonylation in rpmi observed
- Effect of radical trap 2,6-di-tert-butylphenol on CO release in acidic aqueous solution [3]: inhibited the decarbonylation process
- CO release in pH 2 (acidic aqueous) solution [3]: decarbonylated significantly
SMILES: Cc1ccc(CC(C)(C)C=O)cc1 [compound 6, 2,2-dimethyl-3-(p-methylphenyl)propanal]
- Media in which CO release was observed [3]: released CO in all media tested except H2O2 solution

- Effect of radical trap 2,6-di-tert-butylphenol on CO release in acidic aqueous solution [3]: inhibited the decarbonylation process
- CO release in pH 2 (acidic aqueous) solution [3]: decarbonylated significantly
SMILES: CC(C)(C=O)c1ccccc1 [compound 7, 2-methyl-2-phenylpropionaldehyde]
- CO release in H2O2 solution [3]: responded significantly to decarbonylation
- Media in which CO release was observed [3]: released CO in all media tested except rpmi solution
- Increase in body weight by day 40 (adjuvant arthritis [4]; [5]): 28.6%
- Days with significant inhibition of arthritic score relative to vehicle treated rats (adjuvant arthritis [4]; 100 mg/kg): 14 days
- Reduction in paw volume compared with dexamethasone (adjuvant arthritis [4]; 100 mg/kg): comparable to that seen in rats treated with dexamethasone
- Increase in body weight by day 40 (adjuvant arthritis [4]; [6]): 31.6%
- Arthritic score (adjuvant arthritis [4]): only slightly influenced
- Increase in paw volume compared to vehicle or untreated rats (adjuvant arthritis [4]): reduced the increase in paw volume

The remaining lines, values behind:

SMILES: CC(C)(C)C=Nc1ccc(C(=O)O)c(O)c1
- CO release [1]: Stable, but instaneous hydro- lysis was observed when dissolved in water

SMILES: CC(C)(C)C=NNC(=O)c1ccccc1
- CO release [1]: No hydrolysis → No CO

SMILES: CC(C)(C)/C=N/NC(=O)Nc1ccccc1
- CO release [1]: No hydrolysis → No CO

SMILES: COC(=O)C1COC(C(C)(C)C)N1 (stereo not shown)
- CO release after 6 hours ([1]; TBHP plus rpmi): 0%
- CO release after 24 hours ([1]; TBHP plus rpmi): 4.2%

SMILES: CC1C(c2ccccc2)OC(C(C)(C)C)N1C (stereo not shown)
- CO release [1]: No hydrolysis → No CO

SMILES: CC(C)(C)C1Nc2ccccc2CO1 (stereo not shown)
- CO release [1]: No hydrolysis → No CO

SMILES: CC(C)(C)C=O [compound 1, trimethylacetaldehyde]
- Body weight after disease onset (adjuvant arthritis [2]): No loss of body weight was observed
- Paw circumference (right and left) (adjuvant arthritis [2]): prevented the increase
- Paw volume (right and left) (adjuvant arthritis [2]): prevented the increase
- Dependence of CO release on TBHP concentration ([3]; 0.23 M aldehyde, varying TBHP, up to 32 eq.): increased with the concentration of TBHP until approximately eight equivalents of TBHP was reached
- CO release at higher and lower aldehyde concentrations relative to maximum ([3]; 0.25 M and 0.08 M aldehyde in TBHP): decreased approximately to half
- Aldehyde concentration giving maximum CO release ([3]; 1.9 M TBHP): around 0.12 M
- CO release in rpmi [3]: No CO was detected
- CO release at TBHP concentration of inflamed tissues ([3]; TBHP 1 mM): CO release still was observed
- CO release in TBHP solution [3]: released CO
- Effect of radical trap 2,6-di-tert-butylphenol on CO release in TBHP solution ([3]; TBHP solution plus radical trap): inhibited
- Effect of radical trap 2,6-di-tert-butylphenol on CO release in acidic aqueous solution [3]: inhibited
- CO release in pH 2 (acidic aqueous) solution [3]: very little
- CO release in H2O2 solution [3]: No CO was detected
- Increase in body weight by day 40 (adjuvant arthritis [4]; [5]): 38.7%
- Increase in body weight by day 40 (adjuvant arthritis [4]; [6]): 40%
- Arthritic score (adjuvant arthritis [4]): only slightly influenced
- Increase in paw volume compared to vehicle or untreated rats (adjuvant arthritis [4]): reduced the increase in paw volume

SMILES: C=CCC(C)(C)C=O [compound 2, 2,2-dimethyl-4-pentenal]
- Body weight after disease onset (adjuvant arthritis [2]): No loss of body weight was observed
- Paw circumference (right and left) (adjuvant arthritis [2]): prevented the increase
- Paw volume (right and left) (adjuvant arthritis [2]): prevented the increase
- CO release in rpmi [3]: decarbonylation in rpmi observed
- CO release in rpmi ([3]; listed as 2,2-dimethyl-4-pentenal): even less
- CO release in TBHP solution [3]: released CO
- CO release in pH 2 (acidic aqueous) solution [3]: very little
- CO release in H2O2 solution [3]: No CO release was observed

SMILES: CCC(C=O)(CC)CCC#N [compound 3, 4-ethyl-4-formyl-hexanenitrile]
- CO release in rpmi [3]: decarbonylation in rpmi observed
- CO release in rpmi [3, 7]: even less
- CO release in TBHP solution [3]: released a very high amount of CO
- Effect of radical trap 2,6-di-tert-butylphenol on CO release in acidic aqueous solution [3]: inhibited the decarbonylation process
- CO release in pH 2 (acidic aqueous) solution [3]: decarbonylated significantly
- CO release in pH 2 (acidic aqueous) solution [3, 7]: less
- CO release in H2O2 solution [3]: No CO release was observed

SMILES: CC(C)(C=O)CO [compound 4, 3-hydroxy-2,2-dimethylpropanal]
- Time course of CO release in TBHP solution ([3]; TBHP solution, 0.12 M): initially the CO release was small, but within one day, it reached high levels
- Media in which CO release was observed [3]: released CO only in TBHP solution

SMILES: C[C@@H]1C[C@H]2[C@@H]3CCC4=CC(=O)C=C[C@]4(C)[C@@]3(F)[C@@H](O)C[C@]2(C)[C@@]1(O)C(=O)CO [dexamethasone, reference compound]
- Increase in body weight by day 40 (adjuvant arthritis [4]; dexamethasone 0.3 mg/kg daily for 30 days from day 10): 25.7%
